Results taken from publication PMC11357054, “Azobenzenesulfonamide Carbonic Anhydrase Inhibitors as New Weapons to Fight Helicobacter pylori: Synthesis, Bioactivity Evaluation, In Vivo Toxicity, and Computational Studies” (Pharmaceuticals, 2024).
Converted amounts (≈) assume the structure as drawn. Where two headings read alike, the source gives them in different places.

Legend:
[1] = target: T1, hCA XII (Homo sapiens, UniProt O43570); assay: stopped-flow CO2 hydration; format: biochemical; settings: read-out: KI (nM) * / Human Isoforms / hCA XII
T1 construct: gene CA12
T1 sequence (O43570 30-289 limits assumed): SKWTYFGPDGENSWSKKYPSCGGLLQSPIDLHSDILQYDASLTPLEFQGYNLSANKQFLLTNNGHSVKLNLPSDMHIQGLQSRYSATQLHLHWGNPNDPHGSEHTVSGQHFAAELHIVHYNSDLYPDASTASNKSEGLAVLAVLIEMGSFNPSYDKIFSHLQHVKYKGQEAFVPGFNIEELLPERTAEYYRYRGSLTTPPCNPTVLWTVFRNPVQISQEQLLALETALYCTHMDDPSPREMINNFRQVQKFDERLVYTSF
From the text: stopped-flow CO2 hydration on hCA XII

[2] = target: T2, HpαCA (Helicobacter pylori, UniProt B5Z8I0); assay: stopped-flow CO2 hydration; format: biochemical
T2 construct: gene HPG27_1129; recombinant, obtained in-house; PDB 4XFW is given for docking only
T2 sequence (B5Z8I0 22-247): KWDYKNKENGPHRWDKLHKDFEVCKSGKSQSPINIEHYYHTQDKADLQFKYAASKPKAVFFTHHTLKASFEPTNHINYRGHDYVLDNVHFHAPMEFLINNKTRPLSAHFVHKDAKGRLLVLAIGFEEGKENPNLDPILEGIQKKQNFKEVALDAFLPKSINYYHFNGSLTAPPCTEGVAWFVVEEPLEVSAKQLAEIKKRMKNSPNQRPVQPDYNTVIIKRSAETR

[3] = target: T3, PsCA3 (Pseudomonas aeruginosa, UniProt Q9HVB9); assay: stopped-flow CO2 hydration; format: biochemical; settings: read-out: KI (nM) * / Bacterial Isoforms / Ps CA3
T3 construct: gene PA4676; recombinant, obtained in-house
T3 sequence (Q9HVB9 1-215): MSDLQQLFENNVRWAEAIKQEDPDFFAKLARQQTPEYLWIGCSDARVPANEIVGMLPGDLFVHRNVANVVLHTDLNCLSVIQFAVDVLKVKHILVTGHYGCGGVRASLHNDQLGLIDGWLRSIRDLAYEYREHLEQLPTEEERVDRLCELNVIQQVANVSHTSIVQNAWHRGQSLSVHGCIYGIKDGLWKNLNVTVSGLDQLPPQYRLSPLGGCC

[4] = tested on: T4, H. pylori ATCC 43504; assay: microbe, parasite or virus in culture; parameters: species or system Helicobacter pylori ATCC 43504; MIC by broth microdilution, alamarBlue and CFU count; MBC by CFU count; settings: Helicobacter pylori, ATCC43504
T4 construct: ATCC 43504
Method: H. pylori ATCC 43504 was cultured on a Columbia Agar base (Becton Dickinson and Company, Franklin Lakes, NJ, USA) supplemented with 10% horse serum (Merck, St. Louis, MO, USA) and 0.25% yeast extract (Oxoid Ltd., Hampshire, UK), incubated at 37 °C for 72 h in a microaerophilic atmosphere (CampyGen, Thermo Fisher Scientific, Milan, Italy). Colonies were collected and transferred into 10 mL of Brain Heart Infusion broth (BHI, Oxoid Ltd., Hampshire, UK) supplemented with 5% (v/v) of fetal bovine serum (FBS, Merck, Milan, Italy) and incubated overnight at 37 °C, at 125 rpm under microaerophilic conditions. After 18 h of incubation, the broth culture was diluted to obtain a bacterial suspension of 10^6 CFU/mL. MICs were determined by three different assays: the broth micro-dilution method, the alamarBlue assay, and the CFU count. […] This bacterium was selected based on the inhibitory potency evidenced by the two series of azobenzenesulfonamides against the HpCAs.

[5] = target: T5, PgiβCA; assay: stopped-flow CO2 hydration; format: biochemical, Porphyromonas gingivalis; settings: pH […] HEPES, […] Na2SO4, […] min preincubation, r.t.; read-out: KI (nM) * / Bacterial Isoforms / Pgi βCA
T5 construct: gene PgiCAb; recombinant, obtained in-house

[6] = target: T6, hCA II (Homo sapiens, UniProt P00918); assay: stopped-flow CO2 hydration; format: biochemical; settings: read-out: KI (nM) * / Human Isoforms / hCA II
T6 construct: gene CA2; purchased from Merck
From the text: stopped-flow CO2 hydration on hCA II

[7] = target: T7, hCA I (Homo sapiens, UniProt P00915); assay: stopped-flow CO2 hydration; format: biochemical; settings: read-out: KI (nM) * / Human Isoforms / hCA I
T7 construct: gene CA1; purchased from Merck
T7 sequence (P00915 2-261): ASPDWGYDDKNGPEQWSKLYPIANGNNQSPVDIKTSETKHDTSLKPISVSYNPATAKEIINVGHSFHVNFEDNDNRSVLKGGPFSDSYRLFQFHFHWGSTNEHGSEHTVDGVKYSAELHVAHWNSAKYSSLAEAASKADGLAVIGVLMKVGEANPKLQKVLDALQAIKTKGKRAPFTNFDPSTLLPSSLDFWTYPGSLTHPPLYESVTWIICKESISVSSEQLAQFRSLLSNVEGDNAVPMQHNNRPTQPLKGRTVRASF
From the text: stopped-flow CO2 hydration on hCA I

[8] = target: T8, PgiγCA; assay: stopped-flow CO2 hydration; format: biochemical, Porphyromonas gingivalis; settings: pH […] HEPES, […] Na2SO4, […] min preincubation, r.t.; read-out: KI (nM) * / Bacterial Isoforms / Pgi γCA
T8 construct: gene PgiCA; recombinant, obtained in-house

[9] = target: T9, HpβCA (Helicobacter pylori, UniProt Q9ZN54); assay: stopped-flow CO2 hydration; format: biochemical; settings: read-out: KI (nM) * / Bacterial Isoforms / Hp βCA
T9 construct: gene cynT; recombinant, obtained in-house
T9 sequence (Q9ZN54 1-221): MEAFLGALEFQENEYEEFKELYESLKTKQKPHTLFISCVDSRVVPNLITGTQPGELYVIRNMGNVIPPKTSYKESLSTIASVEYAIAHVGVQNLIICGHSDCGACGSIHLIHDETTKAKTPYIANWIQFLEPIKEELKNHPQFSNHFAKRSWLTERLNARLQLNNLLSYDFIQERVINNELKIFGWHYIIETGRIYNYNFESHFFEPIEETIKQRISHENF

[10] = target: T10, hCA IX (Homo sapiens, UniProt Q16790); assay: stopped-flow CO2 hydration; format: biochemical; settings: read-out: KI (nM) * / Human Isoforms / hCA IX
T10 construct: gene CA9
From the text: stopped-flow CO2 hydration on hCA IX

[11] = target: T11, EcoβCA (Escherichia coli, UniProt P61517); assay: stopped-flow CO2 hydration; format: biochemical; settings: read-out: KI (nM) * / Bacterial Isoforms / Eco βCA
T11 construct: gene can; recombinant, obtained in-house
T11 sequence (P61517 whole entry, canonical isoform): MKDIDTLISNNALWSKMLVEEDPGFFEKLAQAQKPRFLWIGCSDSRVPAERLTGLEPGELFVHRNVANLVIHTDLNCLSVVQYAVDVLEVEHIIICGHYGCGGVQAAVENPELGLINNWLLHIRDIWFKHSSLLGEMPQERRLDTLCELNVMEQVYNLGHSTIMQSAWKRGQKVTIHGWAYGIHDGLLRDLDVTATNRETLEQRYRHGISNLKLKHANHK

[12] = target: T11, EcoβCA; assay: biochemical; settings: read-out: Bacterial Isoforms / Eco βCA
Method: (§1) An Applied Photophysics stopped-flow instrument was used to evaluate the ability of the test compounds to inhibit CA-catalyzed CO2 hydration. […] The CO2 concentrations ranged from 1.7 to 17 mM for the determination of the kinetic parameters and inhibition constants. Enzyme concentrations spanned from 5 to 12 nM. Stock solutions of the inhibitor (0.1 mM) were prepared in distilled–deionized water, and dilutions up to 0.01 nM were prepared with the assay buffer. Inhibitor and enzyme solutions were preincubated for 15 min at r.t. for the formation of the E–I complex. The inhibition constants were obtained by non-linear least-squares methods using PRISM 3 and the Cheng–Prusoff equation and represent the mean from at least three different determinations. Apart from human CAs I and II purchased from Merck, all the bacterial CAs were recombinant and obtained in-house. Compounds 4a–j and 5a–j were tested on a large panel of human and bacterial isoenzymes belonging to different CA families, evaluating their inhibitory activity through the CO2 hydration activity assay by means of the stopped-flow technique, and the inhibitory constants (KIs) are reported in Table 1 and Table 2, respectively. In particular, we tested the hypoxic tumor-associated hCAs IX and XII, and bacterial isoforms involved in several infectious diseases, such as those caused by H. pylori (HpαCA and HpβCA), Porphyromonas gingivalis (PgiβCA and PgiγCA), Escherichia coli (EcoβCA), Pseudomonas aeruginosa (PsCA3, belonging to the β-class), Mammaliicoccus (Staphylococcus) sciuri (MscCA, belonging to the β-class), and Streptococcus mutans (SmuCA, belonging to the β-class). The inhibition of human physiologically relevant isoforms I and II was also investigated in order to assess the compounds’ selectivity. Our main aim was to rationalize the structural requirements of sulfonamide-containing compounds useful for targeting HpCAs, in order to gain a larger knowledge for further optimization studies focusing on isoform selectivity. In fact, although the tested human and bacterial isoforms present a low degree of sequence similarity, they catalyze the same reaction and contain the catalytically active zinc ion in the active site. Thus, a comparison of the data obtained from different members of this large superfamily has a high relevance in the field. By observing Table 1 and Table 2, interesting structure–activity relationship (SAR) considerations can be inferred.

[13] = target: T7, hCA I; assay: biochemical; settings: read-out: Human Isoforms / hCA I
Method: as §1

[14] = target: T1, hCA XII; assay: biochemical; settings: read-out: Human Isoforms / hCA XII
Method: as §1

[15] = target: T3, PsCA3; assay: biochemical; settings: read-out: Bacterial Isoforms / Ps CA3
Method: as §1

[16] = target: T6, hCA II; assay: biochemical; settings: read-out: Human Isoforms / hCA II
Method: as §1

[17] = target: T10, hCA IX; assay: biochemical; settings: read-out: Human Isoforms / hCA IX
Method: as §1

[18] = read-out: KI (nM) / Bacterial Isoforms / Hp αCA

Cc1cc(O)ccc1/N=N/c1ccc(S(N)(=O)=O)cc1 [4j, (E)-4-((4-hydroxy-2-methylphenyl)diazenyl)benzenesulfonamide]
Ki [1]: 84.1 nM
Ki ([2]; read-out: KI (nM) * / Bacterial Isoforms / Hp αCA): 72.2 nM
Ki [3]: 1840 nM
MBC [4]: 32 µg/mL (≈ 110 µM)
MIC [4]: 16 µg/mL (≈ 54.9 µM)
Ki [5]: 5780 nM
Ki [6]: 4.7 nM
Ki [7]: 5.3 nM
Ki [8]: 914 nM
Ki [9]: 138 nM
Ki [10]: 213 nM
Ki [11]: 3040 nM

O=S(=O)(Nc1ccc(N=Nc2ccccc2)cc1)c1ccccc1 [5a]
Ki [2, 18]: 460 nM
MBC [4]: 32 µg/mL (≈ 94.8 µM)
MIC [4]: 16 µg/mL (≈ 47.4 µM)
Ki [12]: 6950 nM
Ki [13]: 209 nM
Ki [14]: 955 nM
Ki [15]: 9280 nM
Ki [16]: > 100000 nM
Ki [17]: 3980 nM

N#Cc1ccc(S(=O)(=O)Nc2ccc(N=Nc3ccccc3)cc2)cc1 [5b]
Ki [2, 18]: 75.6 nM
MBC [4]: 64 µg/mL (≈ 177 µM)
MIC [4]: 32 µg/mL (≈ 88.3 µM)
Ki [12]: 73400 nM
Ki [13]: 359 nM
Ki [14]: 760 nM
Ki [15]: 5760 nM
Ki [16]: > 100000 nM
Ki [17]: 614 nM

N#Cc1ccc(S(=O)(=O)Nc2ccc(N=Nc3ccccc3)cc2)c(Cl)c1 [5c]
Ki [2, 18]: 77.6 nM
MBC [4]: 8 µg/mL (≈ 20.2 µM)
MIC [4]: 4 µg/mL (≈ 10.1 µM)
Ki [12]: 9210 nM
Ki [13]: 908 nM
Ki [14]: 1750 nM
Ki [15]: > 100000 nM
Ki [16]: 24700 nM
Ki [17]: 9200 nM

O=[N+]([O-])c1cccc(S(=O)(=O)Nc2ccc(N=Nc3ccccc3)cc2)c1 [5d]
Ki [2, 18]: 70.9 nM
MBC [4]: 64 µg/mL (≈ 167 µM)
MIC [4]: 16 µg/mL (≈ 41.8 µM)
Ki [12]: 9080 nM
Ki [13]: 6750 nM
Ki [14]: 215 nM
Ki [15]: 90200 nM
Ki [16]: > 100000 nM
Ki [17]: 601 nM

Cc1ccc(S(=O)(=O)Nc2ccc(N=Nc3ccccc3)cc2)cc1[N+](=O)[O-] [5e]
Ki [2, 18]: 604 nM
MBC [4]: 16 µg/mL (≈ 40.4 µM)
MIC [4]: 8 µg/mL (≈ 20.2 µM)
Ki [12]: 59000 nM
Ki [13]: 853 nM
Ki [14]: 847 nM
Ki [15]: > 100000 nM
Ki [16]: > 100000 nM
Ki [17]: 792 nM

COc1ccc(S(=O)(=O)Nc2ccc(N=Nc3ccccc3)cc2)c(OC)c1 [5f]
Ki [2, 18]: 71.3 nM
MBC [4]: 4 µg/mL (≈ 10.1 µM)
MIC [4]: 4 µg/mL (≈ 10.1 µM)
Ki [12]: 77700 nM
Ki [13]: 905 nM
Ki [14]: 894 nM
Ki [15]: > 100000 nM
Ki [16]: > 100000 nM
Ki [17]: 5740 nM

O=S(=O)(Nc1ccc(N=Nc2ccccc2)cc1)c1ccc(Cl)s1 [5g]
Ki [2, 18]: 55.8 nM
MBC [4]: 16 µg/mL (≈ 42.3 µM)
MIC [4]: 16 µg/mL (≈ 42.3 µM)
Ki [12]: 59200 nM
Ki [13]: 905 nM
Ki [14]: 4120 nM
Ki [15]: > 100000 nM
Ki [16]: > 100000 nM
Ki [17]: 4040 nM

O=S(=O)(Cc1ccccc1)Nc1ccc(N=Nc2ccccc2)cc1 [5h]
Ki [2, 18]: 79 nM
MBC [4]: 128 µg/mL (≈ 364 µM)
MIC [4]: 64 µg/mL (≈ 182 µM)
Ki [12]: 88500 nM
Ki [13]: 5530 nM
Ki [14]: 2250 nM
Ki [15]: > 100000 nM
Ki [16]: > 100000 nM
Ki [17]: 4490 nM

CCS(=O)(=O)Nc1ccc(N=Nc2ccccc2)cc1 [5j]
Ki [2, 18]: 68.4 nM
MBC [4]: 16 µg/mL (≈ 55.3 µM)
MIC [4]: 16 µg/mL (≈ 55.3 µM)
Ki [12]: > 100000 nM
Ki [13]: 931 nM
Ki [14]: 3340 nM
Ki [15]: 69800 nM
Ki [16]: > 100000 nM
Ki [17]: 7070 nM
